Assay results: publication PMC8222254, “Self-assembly of an anion receptor with metal-dependent kinase inhibition and potent in vitro anti-cancer properties” (Nature Communications, 2021)
Several values for one entry are separate records, joined by “and”; a condition that tells them apart may be missing. Equal values may be shown once.

Tests used:
Experiment in all cases: Kinase inhibition screen, cell-free 33P ATP assay at 10 μM
Type in all cases: biochemical
[1] = target: T1, 140 purified human kinases (Homo sapiens, UniProt O60285)
T1 sequence (O60285 1-661): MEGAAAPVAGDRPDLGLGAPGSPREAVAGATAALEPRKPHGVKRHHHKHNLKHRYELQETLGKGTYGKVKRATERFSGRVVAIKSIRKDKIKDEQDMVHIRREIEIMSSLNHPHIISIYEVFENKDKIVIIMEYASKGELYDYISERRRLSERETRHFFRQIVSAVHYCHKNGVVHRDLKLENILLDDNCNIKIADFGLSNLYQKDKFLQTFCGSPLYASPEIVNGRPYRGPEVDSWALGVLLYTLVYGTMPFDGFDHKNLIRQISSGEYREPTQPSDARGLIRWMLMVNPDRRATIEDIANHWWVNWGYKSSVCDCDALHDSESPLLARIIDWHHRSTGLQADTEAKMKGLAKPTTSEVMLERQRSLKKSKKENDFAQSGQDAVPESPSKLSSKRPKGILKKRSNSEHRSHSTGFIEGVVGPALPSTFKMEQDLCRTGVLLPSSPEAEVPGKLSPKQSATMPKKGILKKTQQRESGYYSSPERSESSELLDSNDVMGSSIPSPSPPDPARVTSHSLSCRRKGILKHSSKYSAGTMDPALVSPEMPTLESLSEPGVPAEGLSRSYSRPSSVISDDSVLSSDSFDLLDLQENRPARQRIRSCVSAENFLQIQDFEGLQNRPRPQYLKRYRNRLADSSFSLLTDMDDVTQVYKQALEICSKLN
Protocol: (§1) [L2Cu3]^6+ and [L2Zn3]^6+ were submitted to the MRC Protein Phosphorylation and Ubiquitination Unit International Centre for Kinase Profiling (University of Dundee) and tested in duplicate (at 10 μM) against a series of 140 purified human kinases in a cell-free kinase assay using ^33P ATP[55],[56]. The kinase gene IDs from the screen were then translated into common IDs (HGNC symbol) using biomaRt package[57],[58] in R[59] and R Studio[60] and used as input to the KinMap programme.

[2] = target: 140 purified human kinases (Homo sapiens, UniProt P17612); details: PKA
Protocol: as §1

[3] = target: T2, 140 purified human kinases (Homo sapiens, UniProt P36897)
T2 sequence (P36897 34-503): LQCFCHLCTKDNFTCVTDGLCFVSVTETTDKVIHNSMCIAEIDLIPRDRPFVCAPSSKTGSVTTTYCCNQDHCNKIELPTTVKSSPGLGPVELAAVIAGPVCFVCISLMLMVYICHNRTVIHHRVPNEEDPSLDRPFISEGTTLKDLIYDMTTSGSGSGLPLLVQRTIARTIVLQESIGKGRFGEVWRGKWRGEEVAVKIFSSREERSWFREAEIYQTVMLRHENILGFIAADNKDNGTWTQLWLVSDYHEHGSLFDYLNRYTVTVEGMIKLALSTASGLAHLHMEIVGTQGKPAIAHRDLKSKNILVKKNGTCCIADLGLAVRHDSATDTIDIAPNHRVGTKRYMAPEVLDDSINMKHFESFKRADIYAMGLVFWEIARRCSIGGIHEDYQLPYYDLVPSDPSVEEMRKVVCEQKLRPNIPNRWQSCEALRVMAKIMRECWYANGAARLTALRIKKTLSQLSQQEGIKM
Protocol: as §1

[4] = target: 140 purified human kinases (Homo sapiens, UniProt P49137)
Sequence of 140 purified human kinases (Homo sapiens, UniProt P49137) (P49137 whole entry): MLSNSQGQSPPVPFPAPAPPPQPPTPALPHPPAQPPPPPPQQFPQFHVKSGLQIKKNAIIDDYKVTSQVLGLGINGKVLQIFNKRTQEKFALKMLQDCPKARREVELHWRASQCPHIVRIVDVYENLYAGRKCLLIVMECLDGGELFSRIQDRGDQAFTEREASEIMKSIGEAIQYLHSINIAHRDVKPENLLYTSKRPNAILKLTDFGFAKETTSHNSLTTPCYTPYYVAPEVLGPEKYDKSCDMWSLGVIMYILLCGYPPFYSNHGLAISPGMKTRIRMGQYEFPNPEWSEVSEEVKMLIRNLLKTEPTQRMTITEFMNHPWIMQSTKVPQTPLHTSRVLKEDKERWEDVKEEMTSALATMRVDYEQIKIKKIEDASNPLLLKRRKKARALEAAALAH
Protocol: as §1

[5] = target: T3, 140 purified human kinases (Homo sapiens, UniProt P51955); details: NEK2a
T3 sequence (P51955 1-445): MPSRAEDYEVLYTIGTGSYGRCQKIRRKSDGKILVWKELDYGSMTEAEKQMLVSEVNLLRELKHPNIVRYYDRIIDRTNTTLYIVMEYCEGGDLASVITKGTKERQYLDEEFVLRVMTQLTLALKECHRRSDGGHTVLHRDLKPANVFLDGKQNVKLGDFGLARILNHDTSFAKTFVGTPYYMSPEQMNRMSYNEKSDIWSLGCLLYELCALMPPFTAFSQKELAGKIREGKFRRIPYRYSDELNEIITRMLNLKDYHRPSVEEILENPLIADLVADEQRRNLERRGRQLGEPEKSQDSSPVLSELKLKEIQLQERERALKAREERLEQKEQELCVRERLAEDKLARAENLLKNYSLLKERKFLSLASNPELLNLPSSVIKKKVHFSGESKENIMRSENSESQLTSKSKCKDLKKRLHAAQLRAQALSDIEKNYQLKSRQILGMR
Protocol: as §1

[6] = target: 140 purified human kinases (Homo sapiens, UniProt Q96GD4); details: Aurora B
Sequence of 140 purified human kinases (Homo sapiens, UniProt Q96GD4) (Q96GD4 whole entry): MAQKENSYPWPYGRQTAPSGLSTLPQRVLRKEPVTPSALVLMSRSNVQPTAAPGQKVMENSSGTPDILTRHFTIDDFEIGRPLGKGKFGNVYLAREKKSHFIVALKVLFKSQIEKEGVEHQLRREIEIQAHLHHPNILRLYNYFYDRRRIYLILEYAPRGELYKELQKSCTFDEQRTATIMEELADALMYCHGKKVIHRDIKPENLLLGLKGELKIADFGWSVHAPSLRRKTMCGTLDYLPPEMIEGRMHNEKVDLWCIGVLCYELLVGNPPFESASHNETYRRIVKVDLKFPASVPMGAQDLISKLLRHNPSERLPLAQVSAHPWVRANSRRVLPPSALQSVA
Protocol: as §1

[7] = target: 140 purified human kinases (Homo sapiens, UniProt Q9Y6E0)
Sequence of 140 purified human kinases (Homo sapiens, UniProt Q9Y6E0) (Q9Y6E0 whole entry): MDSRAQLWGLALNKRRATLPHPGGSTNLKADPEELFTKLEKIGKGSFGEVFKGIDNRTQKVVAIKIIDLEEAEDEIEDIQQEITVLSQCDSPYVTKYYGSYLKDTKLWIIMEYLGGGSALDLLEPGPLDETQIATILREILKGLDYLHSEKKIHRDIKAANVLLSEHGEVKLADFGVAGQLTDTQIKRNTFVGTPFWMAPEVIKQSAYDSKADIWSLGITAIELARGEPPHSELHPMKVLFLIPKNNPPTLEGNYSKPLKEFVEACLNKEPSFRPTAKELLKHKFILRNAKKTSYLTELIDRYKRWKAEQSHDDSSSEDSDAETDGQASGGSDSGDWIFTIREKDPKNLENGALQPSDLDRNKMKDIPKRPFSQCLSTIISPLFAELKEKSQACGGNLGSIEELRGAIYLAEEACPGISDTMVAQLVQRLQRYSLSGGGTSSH
Protocol: as §1

[8] = system: 140 purified human kinases; details: PHK
Protocol: as §1

CC(=O)[O-].CC(=O)[O-].CC(=O)[O-].CC(=O)[O-].CC(=O)[O-].CC(=O)[O-].[Zn+2].[Zn+2].[Zn+2].c1ccc(-c2csc(NCCN(CCNc3nc(-c4ccccn4)cs3)CCNc3nc(-c4ccccn4)cs3)n2)nc1.c1ccc(-c2csc(NCCN(CCNc3nc(-c4ccccn4)cs3)CCNc3nc(-c4ccccn4)cs3)n2)nc1 [[L2Zn3]6+]
% Inhibition, Mean ([1]; NUAK1): 61%
% Inhibition, Run 1 / Run 2 ([1]; NUAK1): 64% and 59%
mean % activity ([1]; NUAK1): 39%
% activity ([1]; NUAK1, duplicate runs): 36% and 41%
% Activation, Mean value [2]: 7%
% Inhibition, Mean [2]: -7%
mean % activity [2]: 107%
% activity ([2]; duplicate runs): 101% and 114%
% Inhibition, Mean ([3]; TGFBR1): 41%
% Inhibition, Run 1 / Run 2 ([3]; TGFBR1): 35% and 48%
mean % activity ([3]; TGFBR1): 59%
% activity ([3]; TGFBR1, duplicate runs): 65% and 53%
% Inhibition, Mean ([4]; MAPKAP-K2): 41%
% Inhibition, Run 1 / Run 2 ([4]; MAPKAP-K2): 47% and 35%
mean % activity ([4]; MAPKAP-K2): 60%
% activity ([4]; MAPKAP-K2, duplicate runs): 54% and 66%
% Inhibition, Mean [5]: 30%
mean % activity [5]: 70%
% activity ([5]; duplicate runs): 58% and 82%
% Inhibition, Mean [6]: 50%
% Inhibition, Run 1 / Run 2 [6]: 54% and 46%
mean % activity [6]: 50%
% activity ([6]; duplicate runs): 46% and 54%
% Inhibition, Mean ([7]; MST3): 0.4%
% Inhibition, Run 1 / Run 2 ([7]; MST3): -3.6% and 4.4%
mean % activity ([7]; MST3): 100%
% activity ([7]; MST3, duplicate runs): 104% and 96%
% Inhibition, Run 1 / Run 2 [8]: 68% and 61%

[Cu+2].[Cu+2].[Cu+2].c1ccc(-c2csc(NCCN(CCNc3nc(-c4ccccn4)cs3)CCNc3nc(-c4ccccn4)cs3)n2)nc1.c1ccc(-c2csc(NCCN(CCNc3nc(-c4ccccn4)cs3)CCNc3nc(-c4ccccn4)cs3)n2)nc1 [[L2Cu3]6+]
% Inhibition Run 1 ([1]; NUAK1): 93.9%
% Inhibition Run 2 ([1]; NUAK1): 92.9%
% Inhibition, Mean ([1]; NUAK1): 93%
mean % activity ([1]; NUAK1): 6.6%
% activity ([1]; NUAK1, Run 1): 6.1%
% activity ([1]; NUAK1, Run 2): 7.1%
% Activity inhibition Mean ([1]; NUAK1, 10 µM): 93.4%
% Activity inhibition Run 1 ([1]; NUAK1, 10 µM): 93.9%
% Activity inhibition Run 2 ([1]; NUAK1, 10 µM): 92.9%
% Activity remaining Run 1 ([1]; NUAK1, 10 µM): 6.10%
% Activity remaining Run 2 ([1]; NUAK1, 10 µM): 7.10%
% Inhibition Run 1 [2]: 46.4%
% Inhibition Run 2 [2]: 48.2%
% Inhibition, Mean [2]: 47%
mean % activity [2]: 53%
% activity ([2]; Run 1): 53.6%
% activity ([2]; Run 2): 51.8%
% Activation, Mean value ([3]; TGFBR1): 30%
% Inhibition Run 1 ([3]; TGFBR1): -44.2%
% Inhibition Run 2 ([3]; TGFBR1): -16.7%
% Inhibition, Mean ([3]; TGFBR1): -30%
mean % activity ([3]; TGFBR1): 130%
% activity ([3]; TGFBR1, Run 1): 144.2%
% activity ([3]; TGFBR1, Run 2): 116.7%
% Activity Run 1 ([3]; TGFBR1, 10 µM): 144.20%
% Activity Run 2 ([3]; TGFBR1, 10 µM): 116.70%
% Inhibition Run 1 ([4]; MAPKAP-K2): 97.8%
% Inhibition Run 2 ([4]; MAPKAP-K2): 98.1%
% Inhibition, Mean ([4]; MAPKAP-K2): 98%
mean % activity ([4]; MAPKAP-K2): 2%
% activity ([4]; MAPKAP-K2, Run 1): 2.2%
% activity ([4]; MAPKAP-K2, Run 2): 1.9%
% Activity inhibition Mean ([4]; MAPKAP-K2, 10 µM): 97.9%
% Activity inhibition Run 1 ([4]; MAPKAP-K2, 10 µM): 97.8%
% Activity inhibition Run 2 ([4]; MAPKAP-K2, 10 µM): 98.1%
% Activity remaining Run 1 ([4]; MAPKAP-K2, 10 µM): 2.20%
% Activity remaining Run 2 ([4]; MAPKAP-K2, 10 µM): 1.90%
% Inhibition Run 1 [5]: 94.1%
% Inhibition Run 2 [5]: 94%
% Inhibition, Mean [5]: 94%
mean % activity [5]: 6%
% activity ([5]; Run 1): 5.9%
% activity ([5]; Run 2): 6%
% Activity inhibition Mean ([5]; 10 µM): 94.1%
% Activity inhibition Run 1 ([5]; 10 µM): 94.1%
% Activity inhibition Run 2 ([5]; 10 µM): 94%
% Activity remaining Run 1 ([5]; 10 µM): 5.90%
% Activity remaining Run 2 ([5]; 10 µM): 6.00%
% Inhibition Run 1 [6]: 92.4%
% Inhibition Run 2 [6]: 91.3%
% Inhibition, Mean [6]: 92%
mean % activity [6]: 8%
% activity ([6]; Run 1): 7.6%
% activity ([6]; Run 2): 8.7%
% Activity inhibition Mean ([6]; 10 µM): 91.9%
% Activity inhibition Run 1 ([6]; 10 µM): 92.4%
% Activity inhibition Run 2 ([6]; 10 µM): 91.3%
% Activity remaining Run 1 ([6]; 10 µM): 7.60%
% Activity remaining Run 2 ([6]; 10 µM): 8.70%
% Inhibition Run 1 ([7]; MST3): 9.9%
% Inhibition Run 2 ([7]; MST3): -5.7%
% Inhibition, Mean ([7]; MST3): 2%
mean % activity ([7]; MST3): 98%
% activity ([7]; MST3, Run 1): 90.1%
% activity ([7]; MST3, Run 2): 105.7%
% activity ([8]; Run 1): 40.1%
% activity ([8]; Run 2): 50.7%
